Target: β1AR (Homo sapiens, UniProt P08588)
Assay: BRET analysis of β-arrestin2 interaction with β1AR in HEK 293 cells
Format: cell-based
Details: 10 μM DFPQ, FIG. 2B
Experimental: FIGS. 2A-2C: […] Cells were read every 2 min post agonist addition. […]® ADRB2 cells (DiscoveRx) were maintained with the AssayCompleteTM Cell Culture kit (DiscoveRx catalog #92-[…]). […] HEK 293 cells stably overexpressing β2AR included 250 μg/ml G418. Cells were incubated at 37° C. in a humidified incubator with 5% CO2. […] Cells were read every three minutes for 18 minutes on a PolarStar Optima plate reader (BMG) to establish peak signal. […] Plates were incubated in the dark at room temperature for one hour. Luminescence was determined at room temperature (23-25° C.) on a PolarStar Optima plate reader (BMG). […] Screening data analysis and IC50 determination. […] Relative assay bias was calculated from the ratio of normalized cAMP and arrestin recruitment responses. […] BRET was measured using a Tecan Infinite F500 microplate reader. […] Bound [35 S]GTPγS was collected by rapid filtration on GF/B filters, washed 4 times with 4 ml of cold GTPγS wash buffer and analyzed by liquid scintillation counting. […] Immunoprecipitated proteins were separated by SDS-PAGE and analyzed by western blot using a β2AR C-terminal tail or phospho-specific antibody. […] Band intensity was measured by densitometry using ImageJ. […] Absorbance was then measured on a plate reader at 405 nm. […] Lungs were monitored for appropriate inflation. […] Images were analyzed post hoc using the ImageJ software. […] Cell-free area was quantitated using ImageJ. […]

Chain of β1AR (P08588 whole entry): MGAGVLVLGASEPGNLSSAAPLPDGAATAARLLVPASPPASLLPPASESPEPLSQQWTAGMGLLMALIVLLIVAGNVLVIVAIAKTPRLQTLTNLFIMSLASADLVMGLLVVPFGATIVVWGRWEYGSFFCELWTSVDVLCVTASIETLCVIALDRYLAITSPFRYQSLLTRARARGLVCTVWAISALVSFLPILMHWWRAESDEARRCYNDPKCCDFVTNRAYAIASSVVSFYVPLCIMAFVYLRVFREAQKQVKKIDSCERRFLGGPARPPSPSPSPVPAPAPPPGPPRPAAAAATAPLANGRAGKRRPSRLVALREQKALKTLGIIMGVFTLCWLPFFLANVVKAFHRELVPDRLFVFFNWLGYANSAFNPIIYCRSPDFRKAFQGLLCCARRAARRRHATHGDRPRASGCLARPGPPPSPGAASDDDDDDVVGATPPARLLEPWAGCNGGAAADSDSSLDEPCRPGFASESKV

Fc1ccc(Nc2nc(NC3CCCCC3)c3ccccc3n2)cc1F [DFPQ, N^4-cyclohexyl-N^2-(3,4-difluorophenyl)quinazoline-2,4-diamine]
β-arrestin2 interaction with the β1AR: not significantly inhibited
